Source: ChEMBL document CHEMBL5154661, “Novel 2-phenyl-3-(Pyridin-2-yl) thiazolidin-4-one derivatives as potent inhibitors for proliferation of osteosarcoma cells in vitro and in vivo” (Eur J Med Chem, 2022)
The source made the active and inactive calls. The calls are words filed in the database; no cut-off is given here.

Columns and labels:
[1] = Toxicity in ICR mouse at 800 mg/kg, ip; format: organism-based; conditions: in vivo
[2] = Half life in male ICR mouse at 62.5 mg/kg, ip measured upto 24 hrs by LC-MS/MS analysis; format: ADME, organism-based; conditions: in vivo
HOS-TE85 [3] = assay: Antiproliferative activity against human MNNG/HOS cells assessed as cell growth inhibition measured after 72 hrs by CCK-8 assay; format: functional, cell-based; conditions: HOS-TE85, 72 h
U2OS = assay: Antiproliferative activity against human U2OS cells assessed as cell growth inhibition measured after 72 hrs by CCK-8 assay; format: functional, cell-based
143B = assay: Antiproliferative activity against human 143B cells assessed as cell growth inhibition measured after 72 hrs by CCK-8 assay; format: functional, cell-based
SW1353 = assay: Antiproliferative activity against human SW1353 cells assessed as cell growth inhibition measured after 72 hrs by CCK-8 assay; format: functional, cell-based; conditions: SW1353, 72 h
HOS = assay: Antiproliferative activity against human HOS cells assessed as cell growth inhibition measured after 72 hrs by CCK-8 assay; format: functional, cell-based
SJSA-1 [4] = assay: Antiproliferative activity against human SJSA-1 cells assessed as cell growth inhibition measured after 72 hrs by CCK-8 assay; format: functional, cell-based; conditions: SJSA-1, 72 h
MG-63 [5] = assay: Antiproliferative activity against human MG-63 cells assessed as cell growth inhibition measured after 72 hrs by CCK-8 assay; format: functional, cell-based; conditions: MG-63, 72 h
SAOS-2 = assay: Antiproliferative activity against human SAOS-2 cells assessed as growth inhibition measured after 72 hrs by CCK-8 assay; format: functional, cell-based; conditions: SAOS-2, 72 h
[6] = Cytotoxicity against human BMSC cells assessed as growth inhibition measured after 72 hrs by CCK-8 assay; format: toxicity, cell-based, HBMSC
[7] = Cytotoxicity against human GES1 cells assessed as growth inhibition measured after 72 hrs by CCK-8 assay; format: toxicity, cell-based
[8] = Half life in male ICR mouse at 12.5 mg/kg, iv measured upto 24 hrs by LC-MS/MS analysis; format: ADME, organism-based; conditions: in vivo
[9] = AUC(0 to infinity) in male ICR mouse at 12.5 mg/kg, iv measured upto 24 hrs by LC-MS/MS analysis; format: ADME, organism-based; set-up: time < 24 hrs, dose 12.5 mg/kg, route iv; conditions: in vivo
[10] = Plasma clearance in male ICR mouse at 12.5 mg/kg, iv measured upto 24 hrs by LC-MS/MS analysis; format: ADME, organism-based
[11] = Cmax in male ICR mouse at 62.5 mg/kg, ip measured upto 24 hrs by LC-MS/MS analysis; format: ADME, organism-based; set-up: dose 62.5 mg/kg, time < 24 hrs, route ip; conditions: in vivo
[12] = AUC(0 to infinity) in male ICR mouse at 62.5 mg/kg, ip measured upto 24 hrs by LC-MS/MS analysis; format: ADME, organism-based; set-up: dose 62.5 mg/kg, time < 24 hrs, route ip; conditions: in vivo
[13] = Bioavailability in male ICR mouse at 62.5 mg/kg, ip measured upto 24 hrs by LC-MS/MS analysis; format: ADME, organism-based; conditions: in vivo
SJSA-1 [14] = assay: Antiproliferative activity against human SJSA-1 cells with increase MYOF expression assessed as cell growth inhibition incubated for 72 hrs by CCK-8 assay; format: functional, cell-based; conditions: SJSA-1, 72 h
MG-63 [15] = assay: Antiproliferative activity against human MG-63 cells with increase MYOF expression assessed as cell growth inhibition incubated for 72 hrs by CCK-8 assay; format: functional, cell-based; conditions: MG-63, 72 h
HOS-TE85 [16] = assay: Antiproliferative activity against human MNNG/HOS cells with increase MYOF expression assessed as cell growth inhibition incubated for 72 hrs by CCK-8 assay; format: functional, cell-based; conditions: HOS-TE85, 72 h
HOS-TE85 [17] = assay: Antiproliferative activity against human MNNG/HOS cells with low MYOF expression assessed as cell growth inhibition incubated for 72 hrs by CCK-8 assay; format: functional, cell-based; conditions: HOS-TE85, 72 h
K562 = assay: Antiproliferative activity against human K562 cells with low MYOF expression assessed as cell growth inhibition incubated for 72 hrs by CCK-8 assay; format: functional, cell-based; conditions: K562, 72 h
HL-60 = assay: Antiproliferative activity against human HL-60 cells with low MYOF expression assessed as cell growth inhibition incubated for 72 hrs by CCK-8 assay; format: functional, cell-based; conditions: HL-60, 72 h
HOS-TE85 [18] = assay: Cell cycle arrest at human MNNG/HOS cells assessed as accumulation at G0/G1 phase at 5 uM measured after 24 hrs by propidium iodide staining based flow cytometry(Rvb=37.12%); format: functional
HOS-TE85 [19] = assay: Cell cycle arrest at human MNNG/HOS cells assessed as accumulation at S phase at 5 uM measured after 24 hrs by propidium iodide staining based flow cytometry(Rvb=38.9%); format: functional
HOS-TE85 [20] = assay: Cell cycle arrest in human MNNG/HOS cells assessed as accumulation at G2/M phase at 5 uM measured after 24 hrs by propidium iodide staining based flow cytometry(Rvb=21.2%); format: functional
HOS-TE85 [21] = assay: Inhibition of cell migration in human MNNG/HOS cells at 20 nM measured after 24 hrs by wound healing assay relative to control; format: functional
HOS-TE85 [22] = assay: Inhibition of cell migration in human MNNG/HOS cells at 5 nM measured after 24 hrs by transwell assay; format: functional
HOS-TE85 [23] = assay: Antitumor activity against human MNNG/HOS cells xenografted in female BALB/c nude mouse assessed as tumor growth inhibition at 62.5 mg/kg, ip administered twice per day for 18 days relative to control; format: functional; conditions: HOS-TE85, 432 h, time 18 day, read-out: TGI
[24] = Toxicity in BALB/c nude mouse xenografted with human MNNG/HOS cells assessed as body weight loss at 62.5 mg/kg, ip administered twice per day for 18 days; format: organism-based, HOS-TE85; conditions: in vivo, 432 h, time 18 day
HOS-TE85 [25] = assay: Antitumor activity against human MNNG/HOS cells xenografted in BALB/c nude mouse assessed as reduction in tumor weight at 62.5 mg/kg, ip administered twice per day for 18 days; format: functional, organism-based; conditions: time 18.0 day
[26] = Toxicity in BALB/c nude mouse xenografted with human MNNG/HOS cells assessed as effect on heart morphology by H and E staining assay at 62.5 mg/kg, ip administered twice per day for 18 days; format: organism-based, HOS-TE85; conditions: in vivo, 432 h, time 18 day
[27] = Toxicity in BALB/c nude mouse xenografted with human MNNG/HOS cells assessed as effect on liver morphology by H and E staining assay at 62.5 mg/kg, ip administered twice per day for 18 days; format: organism-based, HOS-TE85; conditions: in vivo, 432 h, time 18 day
[28] = Toxicity in BALB/c nude mouse xenografted with human MNNG/HOS cells assessed as effect on kidney morphology by H and E staining assay at 62.5 mg/kg, ip administered twice per day for 18 days; format: organism-based, HOS-TE85; conditions: in vivo, 432 h, time 18 day
[29] = Toxicity in BALB/c nude mouse xenografted with human MNNG/HOS cells assessed as effect on spleen morphology by H and E staining assay at 62.5 mg/kg, ip administered twice per day for 18 days; format: organism-based, HOS-TE85; conditions: in vivo, 432 h, time 18 day
[30] = Toxicity in ICR mouse at 300 mg/kg, ip administered daily for a week; format: organism-based; conditions: in vivo
[31] = Toxicity in BALB/c nude mouse xenografted with human MNNG/HOS cells assessed as effect on ratio of heart weight to body weight at 62.5 mg/kg, ip administered twice per day for 18 days; format: organism-based, HOS-TE85; conditions: in vivo, 432 h, time 18 day
[32] = Toxicity in BALB/c nude mouse xenografted with human MNNG/HOS cells assessed as effect on ratio of liver weight to body weight at 62.5 mg/kg, ip administered twice per day for 18 days; format: organism-based, HOS-TE85; conditions: in vivo, 432 h, time 18 day
[33] = Toxicity in BALB/c nude mouse xenografted with human MNNG/HOS cells assessed as effect on ratio of kidney weight to body weight at 62.5 mg/kg, ip administered twice per day for 18 days; format: organism-based, HOS-TE85; conditions: in vivo, 432 h, time 18 day
[34] = Toxicity in BALB/c nude mouse xenografted with human MNNG/HOS cells assessed as effect on ratio of spleen weight to body weight at 62.5 mg/kg, ip administered twice per day for 18 days; format: organism-based, HOS-TE85; conditions: in vivo, 432 h, time 18 day
[35] = Drug distribution in plasma of BALB/c nude mouse xenografted with human MNNG/HOS cells at 62.5 mg/kg,ip measured after 12 hrs; format: ADME, organism-based, HOS-TE85
[36] = Drug distribution in tumor of BALB/c nude mouse xenografted with human MNNG/HOS cells at 62.5 mg/kg,ip measured after 12 hrs; format: ADME, organism-based, Neoplasm, HOS-TE85; conditions: read-out: Ct
[37] = Half life in male ICR mouse at 5 mg/kg, iv measured upto 24 hrs by LC-MS/MS analysis; format: ADME, organism-based; conditions: in vivo
[38] = Oral bioavailability in male ICR mouse at 25 mg/kg measured upto 24 hrs by LC-MS/MS analysis; format: ADME, organism-based; conditions: in vivo

half-life [2]: 38.5 min | IC50 (U2OS): 26.5 nM | IC50 (SW1353): 19.9 nM | IC50 (SJSA-1 [4]): 62.2 nM | half-life [8]: 3.66 min | AUC(0-inf) [9]: 3230 ng·h/mL | clearance [10]: 66.9 mL/min/kg | Cmax [11]: 20500 ng/mL | AUC(0-inf) [12]: 8410 ng·h/mL | bioavailability [13]: 52.1% | IC50 (SJSA-1 [14]): 62.2 nM | IC50 (K562): 28.1 nM | IC50 (HL-60): 19 nM | concentration at 12 h [35]: 55.5 nM | concentration at 12 h [36]: 110 nM | half-life [37]: 23.4 min | bioavailability [38]: 0.36%
Compound: Cc1ccnc(N2C(=O)CS[C@@H]2c2cccc(C(=O)NCCCCn3cccn3)c2)c1
Activity [1]: Non-Toxic | IC50 (HOS-TE85 [3]): 21.9 nM | IC50 (143B): 29.5 nM | IC50 (HOS): 50.9 nM | IC50 (MG-63 [5]): 14.9 nM | IC50 (SAOS-2): 26.8 nM | IC50 at 72 h [6]: > 10000 nM | IC50 at 72 h [7]: > 20000 nM | IC50 (MG-63 [15]): 14.9 nM | IC50 (HOS-TE85 [16]): 31.6 nM | IC50 (HOS-TE85 [17]): 35.2 nM | Activity (HOS-TE85 [18]): 59.69% | Activity (HOS-TE85 [19]): 30.1% | Activity (HOS-TE85 [20]): 10.21% | inhibition at 0.02 µM (HOS-TE85 [21]): 50% | inhibition at 0.005 µM (HOS-TE85 [22]): 60% | inhibition in vivo at 62.5 mg/kg (HOS-TE85 [23]): 52.9% | Activity [24]: Non-Toxic | Activity (HOS-TE85 [25]): Active | Activity [26]: Non-Toxic | Activity [27]: Non-Toxic | Activity [28]: Non-Toxic | Activity [29]: Non-Toxic | Activity [30]: Non-Toxic | Activity [31]: Non-Toxic | Activity [32]: Non-Toxic | Activity [33]: Non-Toxic | Activity [34]: Non-Toxic
